# Source: the Kinase Knowledgebase extract (Sharma et al. 2016)
# Molecular target: PIK3CA (human) (UniProt P42336)
# Assay: Inhibition of PIK3CA Kinase Activity
# PIK3CA (human), sequence (P42336 whole entry, looked up): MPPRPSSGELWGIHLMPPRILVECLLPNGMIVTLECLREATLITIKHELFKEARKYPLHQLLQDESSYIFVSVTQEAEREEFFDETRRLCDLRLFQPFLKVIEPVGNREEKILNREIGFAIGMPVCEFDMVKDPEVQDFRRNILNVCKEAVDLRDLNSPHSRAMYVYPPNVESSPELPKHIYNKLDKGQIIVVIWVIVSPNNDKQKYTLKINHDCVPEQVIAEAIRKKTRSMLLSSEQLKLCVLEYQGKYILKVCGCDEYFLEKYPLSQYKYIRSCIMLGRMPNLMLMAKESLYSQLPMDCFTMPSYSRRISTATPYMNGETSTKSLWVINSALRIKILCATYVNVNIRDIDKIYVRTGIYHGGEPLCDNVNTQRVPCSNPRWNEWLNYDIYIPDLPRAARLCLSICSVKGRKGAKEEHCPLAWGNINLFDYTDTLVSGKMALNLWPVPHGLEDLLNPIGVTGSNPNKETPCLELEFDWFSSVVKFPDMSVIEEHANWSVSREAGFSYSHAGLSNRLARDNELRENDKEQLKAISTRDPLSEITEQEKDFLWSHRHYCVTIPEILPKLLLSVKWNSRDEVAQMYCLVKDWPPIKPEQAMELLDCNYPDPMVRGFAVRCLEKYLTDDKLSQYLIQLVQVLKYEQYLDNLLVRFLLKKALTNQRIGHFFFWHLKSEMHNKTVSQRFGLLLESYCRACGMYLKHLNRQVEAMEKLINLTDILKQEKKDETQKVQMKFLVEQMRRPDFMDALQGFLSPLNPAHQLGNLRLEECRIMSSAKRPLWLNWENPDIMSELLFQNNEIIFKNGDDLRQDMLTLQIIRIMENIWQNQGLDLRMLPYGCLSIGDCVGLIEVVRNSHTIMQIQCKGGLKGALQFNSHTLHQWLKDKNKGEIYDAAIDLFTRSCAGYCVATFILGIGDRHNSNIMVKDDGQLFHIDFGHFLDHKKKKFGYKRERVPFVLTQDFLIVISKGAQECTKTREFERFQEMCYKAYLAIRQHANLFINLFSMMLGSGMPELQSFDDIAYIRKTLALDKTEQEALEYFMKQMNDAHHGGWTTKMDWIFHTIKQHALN
row,IC50,SMILES
1,< 1 µM,CCC(C)n1c(NCCOC)nc2c(-c3cccc(O)c3)nc(N3CCOCC3)nc21 (stereo not given)
2,< 1 µM,c1ccc(Cn2cnc3c(-c4cncnc4)nc(N4CCOCC4)nc32)cc1
3,< 1 µM,Cc1nc(N)ncc1-c1nc(N2CCOCC2)nc2c1ncn2C(C)c1ccccc1 (stereo not given)
4,< 1 µM,CCC(C)n1c(N(C)C)nc2c(-c3cccc(O)c3)nc(N3CCOCC3)nc21 (stereo not given)
5,< 1 µM,Oc1cccc(-c2nc(N3CCOCC3)nc3c2ncn3CCN2CCCC2)c1
6,< 1 µM,CN1CCN(C(=O)Cn2cnc3c(-c4cccc(O)c4)nc(N4CCOCC4)nc32)CC1
7,< 1 µM,c1cc(-c2nc(N3CCOCC3)nc3c2ncn3CC2CC2)c2cc[nH]c2c1
8,< 1 µM,Cc1cccc(-n2cnc3c(-c4cnc(N)nc4)nc(N4CCOCC4)nc32)c1
9,< 1 µM,COCC(C)n1cnc2c(-c3cnc(N)nc3)nc(N3CCOCC3)nc21 (stereo not given)
10,< 1 µM,CCC(C)n1c(NCCN(C)C)nc2c(-c3cccc(O)c3)nc(N3CCOCC3)nc21 (stereo not given)
11,< 1 µM,CCC(C)n1c(NC(C)C)nc2c(-c3cccc(O)c3)nc(N3CCOCC3)nc21 (stereo not given)
12,< 1 µM,Oc1cccc(-c2nc(N3CCOCC3)nc3c2ncn3Cc2cccc(F)c2)c1
13,< 1 µM,C=CCCn1cnc2c(-c3cccc(O)c3)nc(N3CCOCC3)nc21
14,< 1 µM,CC(C)C(C)n1cnc2c(-c3ccc(N)nc3)nc(N3CCOCC3)nc21 (stereo not given)
15,< 1 µM,CCC(C)n1c(Br)nc2c(-c3cccc(O)c3)nc(N3CCOCC3)nc21 (stereo not given)
16,< 1 µM,CCc1nc2c(-c3cccc(O)c3)nc(N3CCOCC3)nc2n1C(C)CC (stereo not given)
17,< 1 µM,CCC(C#N)n1cnc2c(-c3cnc(N)nc3)nc(N3CCOCC3)nc21 (stereo not given)
18,< 1 µM,CC(COC(C)(C)C)n1cnc2c(-c3cnc(N)nc3)nc(N3CCOCC3)nc21 (stereo not given)
19,< 1 µM,O=C(Cn1cnc2c(-c3cccc(O)c3)nc(N3CCOCC3)nc21)N1CCCC1
20,< 1 µM,c1cc(-c2nc(N3CCOCC3)nc3c2ncn3CCC2OCCCO2)c2cc[nH]c2c1
21,< 1 µM,c1cc(-c2nc(N3CCOCC3)nc3c2ncn3C2CCCC2)c2cc[nH]c2c1
22,< 1 µM,Oc1cccc(-c2nc(N3CCOCC3)nc3c2ncn3Cc2c(F)cccc2F)c1
23,< 1 µM,CCC(CC)n1cnc2c(-c3ccc(N)nc3)nc(N3CCOCC3)nc21
24,< 1 µM,Oc1cccc(-c2nc(N3CCOCC3)nc3c2ncn3CCOc2ccccc2)c1
25,< 1 µM,Oc1cc(F)cc(-c2nc(N3CCOCC3)nc3c2ncn3Cc2ccccc2)c1

row,IC50,SMILES
1,< 1 µM,COCC(C)n1cnc2c(-c3ccc(N)nc3)nc(N3CCOCC3)nc21 (stereo not given)
2,< 1 µM,Cc1ccc(C(=O)N2CCC(n3cnc4c(-c5cccc6[nH]ccc56)nc(N5CCOCC5)nc43)CC2)s1
3,< 1 µM,Nc1ccc(-c2nc(N3CCOCC3)nc3c2ncn3C2CCCC2)cn1
4,< 1 µM,CCN(CC)CCn1cnc2c(-c3cccc(O)c3)nc(N3CCOCC3)nc21
5,< 1 µM,O=C(Cn1cnc2c(-c3cccc(O)c3)nc(N3CCOCC3)nc21)NC1CC1
6,< 1 µM,CCC(C)n1c(-c2ccccc2)nc2c(-c3cccc(O)c3)nc(N3CCOCC3)nc21 (stereo not given)
7,< 1 µM,CC(c1ccccc1)n1cnc2c(-c3cnc(N)nc3)nc(N3CCOCC3)nc21 (stereo not given)
8,< 1 µM,COc1ccc(Cn2cnc3c(-c4cccc(O)c4)nc(N4CCOCC4)nc32)cc1
9,< 1 µM,Oc1cccc(-c2nc(N3CCOCC3)nc3c2ncn3C2CCOC2)c1 (stereo not given)
10,< 1 µM,Nc1ncc(-c2nc(N3CCOCC3)nc3c2ncn3C2CCOC2)cn1 (stereo not given)
11,< 1 µM,Nc1ncc(-c2nc(N3CCOCC3)nc3c2ncn3C2CCc3ccccc3C2)cn1 (stereo not given)
12,< 1 µM,CCC(C)n1cnc2c(-c3cncnc3)nc(N3CCOCC3)nc21 (stereo not given)
13,< 1 µM,c1cc(-c2nc(N3CCOCC3)nc3c2ncn3C2CCNCC2)c2cc[nH]c2c1
14,< 1 µM,c1cc(-c2nc(N3CCOCC3)nc3c2ncn3CC2CCCCC2)c2cc[nH]c2c1
15,< 1 µM,Oc1cccc(-c2nc(N3CCOCC3)nc3c2ncn3Cc2ccccc2)c1
16,< 1 µM,CC(C)C(C)n1cnc2c(-c3cnc(N)nc3)nc(N3CCOCC3)nc21 (stereo not given)
17,< 1 µM,CC(C)NC(=O)Cn1cnc2c(-c3cccc(O)c3)nc(N3CCOCC3)nc21
18,< 1 µM,CC1CCC(n2cnc3c(-c4cnc(N)nc4)nc(N4CCOCC4)nc32)CC1 (stereo not given)
19,< 1 µM,COc1cc(Cn2cnc3c(-c4cccc(O)c4)nc(N4CCOCC4)nc32)cc(OC)c1
20,< 1 µM,COCC(C)n1cnc2c(-c3cccc4[nH]ccc34)nc(N3CCOCC3)nc21 (stereo not given)
21,< 1 µM,CCCC(=O)N1CCC(n2cnc3c(-c4cnc(N)nc4)nc(N4CCOCC4)nc32)CC1
22,< 1 µM,CC(C)n1cnc2c(-c3ccc(N)nc3)nc(N3CCOCC3)nc21
23,< 1 µM,CS(=O)(=O)N1CCC(n2cnc3c(-c4cccc5[nH]ccc45)nc(N4CCOCC4)nc32)CC1
24,< 1 µM,CC(C)Cn1cnc2c(-c3cccc4[nH]ccc34)nc(N3CCOCC3)nc21
25,< 1 µM,COCCn1cnc2c(-c3cccc4[nH]ccc34)nc(N3CCOCC3)nc21

row,IC50,SMILES
1,< 1 µM,COc1nc(N)ncc1-c1nc(N2CCOCC2)nc2c1ncn2C(C)C1CC1 (stereo not given)
2,< 1 µM,CCNc1nc2c(-c3cccc(O)c3)nc(N3CCOCC3)nc2n1C(C)CC (stereo not given)
3,< 1 µM,CC(C1CC1)n1cnc2c(-c3cnc(N)nc3)nc(N3CCOCC3)nc21 (stereo not given)
4,< 1 µM,CS(=O)(=O)N1CCN(CCn2cnc3c(-c4cccc(O)c4)nc(N4CCOCC4)nc32)CC1
5,< 1 µM,O=C(CCN1CCCCC1)Nc1ccc(Cn2cnc3c(-c4cccc(O)c4)nc(N4CCOCC4)nc32)cc1
6,< 1 µM,CCC(C)n1cnc2c(-c3cccc(O)c3)nc(N3CCOCC3)nc21 (stereo not given)
7,< 1 µM,O=[N+]([O-])c1cccc(Cn2cnc3c(-c4cccc(O)c4)nc(N4CCOCC4)nc32)c1
8,< 1 µM,N#CCn1cnc2c(-c3cccc(O)c3)nc(N3CCOCC3)nc21
9,< 1 µM,C#CCn1cnc2c(-c3cccc(O)c3)nc(N3CCOCC3)nc21
10,< 1 µM,Nc1ncc(-c2nc(N3CCOCC3)nc3c2ncn3Cc2c(F)cccc2F)cn1
11,< 1 µM,Nc1ncc(-c2nc(N3CCOCC3)nc3c2ncn3C2CCN(C(=O)c3ccccc3)C2)cn1 (stereo not given)
12,< 1 µM,COCC(C)n1cnc2c(-c3cnc(N)nc3OC)nc(N3CCOCC3)nc21 (stereo not given)
13,< 1 µM,c1nc2cc(-c3nc(N4CCOCC4)nc4c3ncn4CC3CC3)ccc2[nH]1
14,< 1 µM,Nc1ncc(-c2nc(N3CCOCC3)nc3c2ncn3C2CCCC2)cn1
15,< 1 µM,Nc1ncc(-c2nc(N3CCOCC3)nc3c2ncn3CC2CC2)cn1
16,< 1 µM,CCCCNc1nc2c(-c3cccc(O)c3)nc(N3CCOCC3)nc2n1C(C)CC (stereo not given)
17,< 1 µM,CCC(C)n1cnc2c(-c3cnc(NC)nc3)nc(N3CCOCC3)nc21 (stereo not given)
18,< 1 µM,Oc1cccc(-c2nc(N3CCOCC3)nc3[nH]c(-c4cccs4)nc23)c1
19,< 1 µM,CC(C)C(C)n1cnc2c(-c3cccc4[nH]ccc34)nc(N3CCOCC3)nc21 (stereo not given)
20,< 1 µM,CC(C)Cn1cnc2c(-c3cccc(O)c3)nc(N3CCOCC3)nc21
21,< 1 µM,CCC(C)n1c(S(C)(=O)=O)nc2c(-c3cccc(O)c3)nc(N3CCOCC3)nc21 (stereo not given)
22,< 1 µM,CC1CCC(n2cnc3c(-c4cccc(O)c4)nc(N4CCOCC4)nc32)CC1 (stereo not given)
23,< 1 µM,CCC(C)n1cnc2c(-c3cnc(N)nc3)nc(N3CCOC[C@@H]3C)nc21 (stereo not given in full)
24,< 1 µM,Cc1ccc(C(=O)N2CCC(n3cnc4c(-c5cnc(N)nc5)nc(N5CCOCC5)nc43)C2)s1 (stereo not given)
25,< 1 µM,CCC(CC)n1cnc2c(-c3cnc(N)nc3)nc(N3CCOCC3)nc21
